Patent US8697744B2, “Substituted 5,6-dihydro-4H-thiazolo[4,5-E]indazoles and their use as positive allosteric modulators of metabotropic glutamate receptors” (Addex Pharma S.A., priority 2009, dated 2014)

How the values were obtained:
[1] = molecular target: T1, recombinant human mGluR4a receptors (Homo sapiens, UniProt Q14833); test: mGluR4 assay on HEK-expressing human mGluR4: fluorescent cell based Ca2+ mobilization assay (FLIPR); conditions: HEK-293 cells expressing hmGluR4; enhancement of EC25 glutamate response; mean of at least three independent experiments in duplicate; read-out: Ca^2+ Flux (mean EC50)
T1 construct: expressed in transfected cells
Source text: mGluR4 Assay on HEK-Expressing Human mGluR4
The compounds of the present invention are positive allosteric modulators of mGluR4 receptor. Their activity was examined on recombinant human mGluR4a receptors by detecting changes in intracellular Ca^2+ concentration, using the fluorescent Ca^2+-sensitive dye Fluo-4-(AM) and a Fluorometric Imaging Plate Reader (FLIPR, Molecular Devices, Sunnyvale, Calif.).
The cDNA encoding the human metabotropic glutamate receptor (hmGluR4), (accession number NM_000841.1, NCBI Nucleotide database browser), was subcloned into an expression vector containing also the hygromycin resistance gene. In parallel, the cDNA encoding a G protein allowing redirection of the activation signal to intracellular calcium flux was subcloned into a different expression vector containing also the puromycin resistance gene. Transfection of both these vectors into HEK293 cells with PolyFect reagent (Qiagen) according to supplier's protocol, and hygromycin and puromycin treatment allowed selection of antibiotic resistant cells which had integrated stably one or more copies of the plasmids. Positive cellular clones expressing hmGluR4 were identified in a functional assay measuring changes in calcium fluxes in response to glutamate or selective known mGluR4 orthosteric agonists and antagonists. HEK-293 cells expressing hmGluR4 were maintained in media containing DMEM, dialyzed Fetal Calf Serum (10%), Glutamax™ (2 mM), Penicillin (100 units/mL), Streptomycin (100 μg/mL), Geneticin (100 μg/mL) and Hygromycin-B (40 μg/mL) and puromycin (1 μg/mL) at 37° C./5% CO2.
Human mGluR4HEK-293 cells were plated out 24 hours prior to FLIPR^384 assay in black-walled, clear-bottomed, poly-L-ornithine-coated 384-well plates at a density of 25,000 cells/well in a glutamine/glutamate free DMEM medium containing foetal bovine serum (10%), penicillin (100 units/mL) and streptomycin (100 μg/mL) at 37° C./5% CO2.
On the day of the assay, the medium was aspirated and the cells were loaded with a 3 μM solution of Fluo-4-AM (LuBioScience, Lucerne, Switzerland) in 0.03% pluronic acid. After 1 hour at 37° C./5% CO2, the non incorporated dye was removed by washing cell plate with the assay buffer and the cells were left in the dark at room temperature for […] before testing. All assays were performed in a pH 7.4 buffered-solution containing 20 mM HEPES, 143 mM NaCl, 6 mM KCl, 1 mM MgSO4, 1 mM CaCl2, 0.125 mM sulfapyrazone and 0.1% glucose.
After 10 s of basal fluorescence recording, various concentrations of the compounds of the invention were added to the cells. Changes in fluorescence levels were first monitored for 180 s in order to detect any agonist activity of the compounds. Then the cells were stimulated by an EC25 glutamate concentration for an additional 110 s in order to measure enhancing activities of the compounds of the invention. EC25 glutamate concentration is the concentration giving 25% of the maximal glutamate response.
The concentration-response curves of representative compounds of the present invention were generated using the Prism GraphPad software (Graph Pad Inc, San Diego, USA). The curves were fitted to a four-parameter logistic equation: (Y=Bottom+(Top−Bottom)/(1+10^((LogEC50−X)*Hill Slope) allowing the determination of EC50 values.
The Table 3 below represents the mean EC50 obtained from at least three independent experiments of selected molecules performed in duplicate.

T1 sequence (Q14833 33-912): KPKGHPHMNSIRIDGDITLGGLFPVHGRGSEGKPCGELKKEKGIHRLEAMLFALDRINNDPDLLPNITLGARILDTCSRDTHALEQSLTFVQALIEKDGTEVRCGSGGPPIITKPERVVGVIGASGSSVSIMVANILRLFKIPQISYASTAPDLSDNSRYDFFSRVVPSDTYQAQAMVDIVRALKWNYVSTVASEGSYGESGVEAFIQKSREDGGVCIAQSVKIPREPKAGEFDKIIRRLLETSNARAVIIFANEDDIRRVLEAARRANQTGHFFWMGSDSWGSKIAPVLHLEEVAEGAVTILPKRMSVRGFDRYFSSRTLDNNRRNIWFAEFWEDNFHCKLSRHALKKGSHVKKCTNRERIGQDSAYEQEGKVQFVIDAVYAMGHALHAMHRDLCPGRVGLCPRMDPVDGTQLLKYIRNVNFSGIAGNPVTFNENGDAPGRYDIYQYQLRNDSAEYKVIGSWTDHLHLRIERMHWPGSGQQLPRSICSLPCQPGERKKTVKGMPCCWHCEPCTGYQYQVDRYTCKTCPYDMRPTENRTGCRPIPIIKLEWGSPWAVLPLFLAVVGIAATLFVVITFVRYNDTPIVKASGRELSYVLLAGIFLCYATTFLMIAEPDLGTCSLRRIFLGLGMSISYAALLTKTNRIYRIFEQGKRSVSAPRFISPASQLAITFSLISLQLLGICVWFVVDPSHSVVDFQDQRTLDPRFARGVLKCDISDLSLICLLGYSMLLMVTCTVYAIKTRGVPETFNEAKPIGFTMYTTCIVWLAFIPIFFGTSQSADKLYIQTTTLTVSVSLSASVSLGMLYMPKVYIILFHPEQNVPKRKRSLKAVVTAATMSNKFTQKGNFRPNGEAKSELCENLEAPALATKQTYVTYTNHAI

Structure (SMILES)	EC50 [1] [nM]	melting point
Fc1cccc(Nc2nc3c(s2)CCCc2[nH]ncc2-3)n1	–	314 °C (dec.)
COc1cccc(Nc2nc3c(s2)CCCc2[nH]ncc2-3)n1 [Compound 1-14, (6-Methoxy-pyridin-2-yl)-(4,5,6,7-tetrahydro-3-thia-1,7,8-triaza-cyclopenta[e]azulen-2-yl)-amine]	1000 to 10000	300 °C (dec.)
c1ccc(Nc2nc3c(s2)CCCc2[nH]ncc2-3)nc1 [Compound 1-8, Pyridin-2-yl-(4,5,6,7-tetrahydro-3-thia-1,7,8-triaza-cyclopenta[e]azulen-2-yl)-amine]	< 100	–
Cc1cccc(Nc2nc3c(s2)CCc2[nH]ncc2-3)n1 [Compound 1-3, N-(6-Methylpyridin-2-yl)-5,6-dihydro-4H-thiazolo[4,5-e]indazol-2-amine]	100 to 1000	280 °C
c1n[nH]c2c1-c1nc(NC3CCCC3)sc1CCC2 [Compound 1-24, Cyclopentyl-(4,5,6,7-tetrahydro-3-thia-1,7,8-triaza-cyclopenta[e]azulen-2-yl)-amine]	–	248 °C (dec.)
c1n[nH]c2c1-c1nc(NC3CCC3)sc1CCC2 [Compound 1-23, Cyclobutyl-(4,5,6,7-tetrahydro-3-thia-1,7,8-triaza-cyclopenta[e]azulen-2-yl)-amine]	–	198 to 221 °C
c1cnc(Nc2nc3c(s2)CCCc2[nH]ncc2-3)nc1 [Compound 1-25, Pyrimidin-2-yl-(4,5,6,7-tetrahydro-3-thia-1,7,8-triaza-cyclopenta[e]azulen-2-yl)-amine]	–	310 °C (dec.)
c1n[nH]c2c1-c1nc(NC3CC3)sc1CCC2 [Compound 1-22, Cyclopropyl-(4,5,6,7-tetrahydro-3-thia-1,7,8-triaza-cyclopenta[e]azulen-2-yl)-amine]	–	178 to 182 °C
c1cnc(Nc2nc3c(s2)CCc2[nH]ncc2-3)cn1 [Compound 1-17, N-(Pyrazin-2-yl)-5,6-dihydro-4H-thiazolo[4,5-e]indazol-2-amine]	–	> 330 °C
Cc1cccc(Nc2nc3c(s2)CCCc2[nH]ncc2-3)n1 [Compound 1-11, (6-Methyl-pyridin-2-yl)-(4,5,6,7-tetrahydro-3-thia-1,7,8-triaza-cyclopenta[e]azulen-2-yl)-amine]	–	312 °C (dec.)
CCC1Cc2[nH]ncc2-c2nc(Nc3ccccn3)sc21 (centres unmarked) [Compound 1-9, 4-Ethyl-N-(pyridin-2-yl)-5,6-dihydro-4H-thiazolo[4,5-e]indazol-2-amine]	–	317 to 319 °C
Cc1ccnc(Nc2nc3c(s2)CCCc2[nH]ncc2-3)n1 [Compound 1-30, (4-Methyl-pyrimidin-2-yl)-(4,5,6,7-tetrahydro-3-thia-1,7,8-triaza-cyclopenta[e]azulen-2-yl)-amine]	–	297 °C (dec.)
Fc1ccc(Nc2nc3c(s2)CCCc2[nH]ncc2-3)nc1 [Compound 1-12, (5-Fluoro-pyridin-2-yl)-(4,5,6,7-tetrahydro-3-thia-1,7,8-triaza-cyclopenta[e]azulen-2-yl)-amine]	–	314 °C (dec.)
c1n[nH]c2c1-c1nc(NC3CCCC3)sc1CC2 [Compound 1-18, N-Cyclopentyl-5,6-dihydro-4H-thiazolo[4,5-e]indazol-2-amine]	–	166 to 168 °C
Clc1cccc(Nc2nc3c(s2)CCCc2[nH]ncc2-3)n1 [Compound 1-16, (6-Chloro-pyridin-2-yl)-(4,5,6,7-tetrahydro-3-thia-1,7,8-triaza-cyclopenta[e]azulen-2-yl)-amine]	–	314 °C (dec.)
CC1(C)Cc2[nH]ncc2-c2nc(Nc3ncccn3)sc21 [Compound 1-32, 4,4-Dimethyl-N-(pyrimidin-2-yl)-5,6-dihydro-4H-thiazolo[4,5-e]indazol-2-amine]	–	298 to 306 °C
CC(C)C(=O)n1ncc2c1CCc1sc(Nc3ccccn3)nc1-2 [Compound 1-2, 2-Methyl-1-(2-(pyridin-2-ylamino)-4H-thiazolo[4,5-e]indazol-6(5H)-yl)propan-1-one]	–	167 to 168 °C
CC1Cc2[nH]ncc2-c2nc(Nc3ncccn3)sc21 (centres unmarked) [Compound 1-33, 4-Methyl-N-(pyrimidin-2-yl)-5,6-dihydro-4H-thiazolo[4,5-e]indazol-2-amine]	–	> 373 °C
Cn1ccc(Nc2nc3c(s2)CCCc2[nH]ncc2-3)n1 [Compound 1-27, (1-Methyl-1H-pyrazol-3-yl)-(4,5,6,7-tetrahydro-3-thia-1,7,8-triaza-cyclopenta[e]azulen-2-yl)-amine]	–	288 to 293 °C
c1n[nH]c2c1-c1nc(NC3CCC3)sc1CC2 [Compound 1-20, N-Cyclobutyl-5,6-dihydro-4H-thiazolo[4,5-e]indazol-2-amine]	–	144 to 146 °C

Next, values leading:

EC50 [1] [nM]	melting point	Structure (SMILES)
100 to 1000	> 300 °C	Fc1cccc(Nc2nc3c(s2)CCc2[nH]ncc2-3)n1 [Compound 1-6, N-(6-Fluoropyridin-2-yl)-5,6-dihydro-4H-thiazolo[4,5-e]indazol-2-amine]
–	315 °C (dec.)	Fc1ccc(Nc2nc3c(s2)CCc2[nH]ncc2-3)nc1 [Compound 1-15, N-(5-Fluoropyridin-2-yl)-5,6-dihydro-4H-thiazolo[4,5-e]indazol-2-amine]
–	> 300 °C	Clc1cccc(Nc2nc3c(s2)CCc2[nH]ncc2-3)n1 [Compound 1-4, N-(6-Chloropyridin-2-yl)-5,6-dihydro-4H-thiazolo[4,5-e]indazol-2-amine]
–	281 to 282 °C	c1cnc(Nc2nc3c(s2)CCc2[nH]ncc2-3)nc1 [Compound 1-26, N-(Pyrimidin-2-yl)-5,6-dihydro-4H-thiazolo[4,5-e]indazol-2-amine]
< 100	300 °C (dec.)	Fc1cccnc1Nc1nc2c(s1)CCCc1[nH]ncc1-2 [Compound 1-13, (3-Fluoro-pyridin-2-yl)-(4,5,6,7-tetrahydro-3-thia-1,7,8-triaza-cyclopenta[e]azulen-2-yl)-amine]
–	300 °C (dec.)	Fc1cccnc1Nc1nc2c(s1)CCc1[nH]ncc1-2 [Compound 1-10, N-(3-Fluoropyridin-2-yl)-5,6-dihydro-4H-thiazolo[4,5-e]indazol-2-amine]
< 100	297 to 299 °C	c1ccc(Nc2nc3c(s2)CCc2[nH]ncc2-3)nc1 [Compound 1-1, N-(Pyridin-2-yl)-5,6-dihydro-4H-thiazolo[4,5-e]indazol-2-amine]
100 to 1000	270 °C (dec.)	Fc1ccc(F)c(Nc2nc3c(s2)CCc2[nH]ncc2-3)c1 [Compound 1-5, N-(2,5-Difluorophenyl)-5,6-dihydro-4H-thiazolo[4,5-e]indazol-2-amine]
–	283 °C (dec.)	Cc1ccnc(Nc2nc3c(s2)CCc2[nH]ncc2-3)n1 [Compound 1-29, N-(4-Methylpyrimidin-2-yl)-5,6-dihydro-4H-thiazolo[4,5-e]indazol-2-amine]
